The subject of one series is NCI-H460 tumors. In words: NCI-H460 tumor xenograft in nude mice, tumor volume (Example 2). Type of series: in vivo. How it is done:
H460 cell line has cytology compatible with human Non-Small Cell Lung Cancer (NSCL). Cells were grown in MEM medium containing 10% FCS at 37° C., 5% CO2 humidified atmosphere. The absence of mycoplasms was confirmed by using the PCR Mycoplasma Detection kit (Takara). All experiments were reviewed by the Genopole's institutional animal care and use committee and were performed in accordance with institutional guidelines for animal care. Female BALB/c nu/nu mice (n=30) were used at 5-6 weeks of age. The animals were housed in laminar air-flow cabinets under pathogen-free conditions with a 12 h light/12 h dark schedule, and fed autoclaved standard chow and water ad libitum. The NCI-H460 human NSCL cell line was obtained from American Type Culture Collection (ATCC) and cells were grown in RPMI medium 1640 supplemented with 1 μM sodium pyruvate. Tumor cells (10^7 cells in 200 μl of HBSS) were injected subcutaneously into the right flanks of mice. After engraftment, tumor volume was measured by Vernier callipers, and calculated as described in Balsari A et al. (Balsari A et al. (2004) Eur J Cancer 40: 1275-1281). At tumor volume about 150 mm3, animals were randomized, and separated into five groups of five animals. Control mice (group 1) were intraperitoneally injected with vehicle (10% DMSO in buffer saline) every day. GS-0 was dissolved in vehicle and intraperitoneally injected (group 2) every day (12 injections). GS-1 was dissolved in vehicle and intraperitoneally injected (group 3) every day (12 injections). Tumor volume and body weight were measured every other day over the treatment period (12 days). GS-1 as well as the control peptide GS-0 were solubilized in DMSO and the resulting solutions were diluted 10 times with phosphate buffer saline (PBS) to obtain a concentration of 1 mg of peptide/ml of 10% DMSO in PBS. At this concentration, all peptides were soluble in 10% DMSO.

Series [1] can be described thus: Body weight and toxicity of mice bearing NCI-H460 tumors (Example 2). Type of series: in vivo. How it is done: All experiments were reviewed by the Genopole's institutional animal care and use committee and were performed in accordance with institutional guidelines for animal care. Female BALB/c nu/nu mice (n=30) were used at 5-6 weeks of age. The animals were housed in laminar air-flow cabinets under pathogen-free conditions with a 12 h light/12 h dark schedule, and fed autoclaved standard chow and water ad libitum. […] Tumor cells (10^7 cells in 200 μl of HBSS) were injected subcutaneously into the right flanks of mice. […] At tumor volume about 150 mm3, animals were randomized, and separated into five groups of five animals. Control mice (group 1) were intraperitoneally injected with vehicle (10% DMSO in buffer saline) every day. GS-0 was dissolved in vehicle and intraperitoneally injected (group 2) every day (12 injections). GS-1 was dissolved in vehicle and intraperitoneally injected (group 3) every day (12 injections). Tumor volume and body weight were measured every other day over the treatment period (12 days).

The nature of series [2]: Solubility of peptides in 10% DMSO in PBS. Format: physicochemical. The conditions noted are these: 1 mg of peptide/ml of 10% DMSO in PBS. How it is done:
GS-1 as well as the control peptide GS-0 were solubilized in DMSO and the resulting solutions were diluted 10 times with phosphate buffer saline (PBS) to obtain a concentration of 1 mg of peptide/ml of 10% DMSO in PBS. At this concentration, all peptides were soluble in 10% DMSO.
GS-2 as well as the control peptide GS-0 were solubilized in DMSO and the resulting solutions were diluted 10 times with phosphate buffer saline (PBS) to obtain a concentration of 1 mg of peptide/ml of 10% DMSO in PBS. At this concentration, all peptides were soluble in 10% DMSO.

With “Ac-NYICMG-NH2 [GS-0, NYICMG, reference compound]”, the “influence on the in vivo growth of the tumor NCI-H460 (in words)” value with NCI-H460 tumors (8 mg/kg i.p. daily for 12 days) was “no significant influence”. The “mean tumor volume at the end of treatment” value in the series on NCI-H460 tumors (8 mg/kg i.p. daily for 12 days, n=5) is on record as 1114.83 ± 534.50 mm^3. Besides, in the series on NCI-H460 tumors (Table 2, 8 mg/kg i.p. daily, day 1), the Mean tumor volume D1 is 123 mm³. In the series on NCI-H460 tumors (Table 2, 8 mg/kg i.p. daily, day 3), this substance registered a Mean tumor volume D3 of 233 mm³. This substance also registered a Mean tumor volume D5 in the series on NCI-H460 tumors (Table 2, 8 mg/kg i.p. daily, day 5) of 335 mm³. The substance further had a Mean tumor volume D7 in the series on NCI-H460 tumors (Table 2, 8 mg/kg i.p. daily, day 7) of 402 mm³. The Mean tumor volume D9 in the series on NCI-H460 tumors (Table 2, 8 mg/kg i.p. daily, day 9) amounted to 553 mm³. This substance also displayed a Mean tumor volume D11 with NCI-H460 tumors (Table 2, 8 mg/kg i.p. daily, day 11) of 751 mm³. This substance showed a Mean tumor volume D13 with NCI-H460 tumors (Table 2, 8 mg/kg i.p. daily, day 13) of 1110 mm³. Moreover, the “toxicity and body weight loss during treatment” value in series [1] (8 mg/kg intraperitoneally every day, 12 injections) was “No toxicity and no body weight loss”. In addition, the “Mean body weight D1” value in series [1] (Table 1, 8 mg/kg i.p. daily, day 1, in g) is 20.91. Further, the “Mean body weight D3” value in series [1] (Table 1, 8 mg/kg i.p. daily, day 3, in g) was 21.37. Besides, the “Mean body weight D5” value in series [1] (Table 1, 8 mg/kg i.p. daily, day 5, in g) is 21.65. In addition, in series [1] (Table 1, 8 mg/kg i.p. daily, day 7, in g), the “Mean body weight D7” value was 21.81. In series [1] (Table 1, 8 mg/kg i.p. daily, day 9, in g), the “Mean body weight D9” value is given as 22.52. In series [1] (Table 1, 8 mg/kg i.p. daily, day 11, in g), the “Mean body weight D11” value stood at 22.76. The “Mean body weight D13” value in series [1] (Table 1, 8 mg/kg i.p. daily, day 13, in g) is on record as 22.36. In series [2], the “solubility in 10% DMSO” value was “soluble”.

(Values after patent US9206236B2, “Peptides for treating cancer” (Gene Signal International SA, priority 2010, dated 2015).)
